Tests used:
Assay in all cases: cells
ES8 = type: functional, cell-based, Homo sapiens; conditions: Homo sapiens, ES8;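 also: growth inhibition of human ES8 cells, read out with a cell viability assay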
Description: SANGER: Inhibition of human ES8 cell growth in a cell viability assay.

LAN-6 = type: functional, cell-based, Homo sapiens; conditions: Homo sapiens, LAN-6;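 also: growth inhibition of LAN-6 cells, determined with a cell viability assay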
Description: SANGER: Inhibition of human LAN-6 cell growth in a cell viability assay.

K5 = type: functional, cell-based, Homo sapiens; conditions: Homo sapiens, K5
Description: SANGER: Inhibition of human K5 cell growth in a cell viability assay.

COLO-824 = type: functional, cell-based, Homo sapiens; conditions: Homo sapiens, COLO-824
Description: SANGER: Inhibition of human COLO-824 cell growth in a cell viability assay.

EW-1 = type: functional, cell-based, Homo sapiens; conditions: Homo sapiens, EW-1
Description: SANGER: Inhibition of human EW-1 cell growth in a cell viability assay.

HCE-T = type: functional, cell-based, Homo sapiens; conditions: Homo sapiens, HCE-T;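 also: cell viability assay read-out, reporting inhibition of HCE-T cell growth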
Description: SANGER: Inhibition of human HCE-T cell growth in a cell viability assay.

EW-16 = type: functional, cell-based, Homo sapiens; conditions: Homo sapiens, EW-16;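 also: growth inhibition of human EW-16 cells, read out as cell viability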
Description: SANGER: Inhibition of human EW-16 cell growth in a cell viability assay.

NCI-H1155 = type: functional, cell-based, Homo sapiens; conditions: Homo sapiens, NCI-H1155;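 also: cell growth inhibition measured by a viability assay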
Description: SANGER: Inhibition of human NCI-H1155 cell growth in a cell viability assay.

SW872 = type: functional, cell-based, Homo sapiens; conditions: Homo sapiens, SW872;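 also: growth inhibition of SW872 cells, read out by a viability assay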
Description: SANGER: Inhibition of human SW872 cell growth in a cell viability assay.

ML-2 = type: functional, cell-based, Homo sapiens; conditions: Homo sapiens, ML-2;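 also: growth inhibition of ML-2 cells, measured with a cell viability readout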
Description: SANGER: Inhibition of human ML-2 cell growth in a cell viability assay.

NCI-H1581 = type: functional, cell-based, Homo sapiens; conditions: Homo sapiens, NCI-H1581;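 also: cell growth inhibition read out by a viability assay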
Description: SANGER: Inhibition of human NCI-H1581 cell growth in a cell viability assay.

LNCaP-Clone-FGC = type: functional, cell-based, Homo sapiens; conditions: Homo sapiens, LNCaP-Clone-FGC
Description: SANGER: Inhibition of human LNCaP-Clone-FGC cell growth in a cell viability assay.

NB5 = type: functional, cell-based, Homo sapiens; conditions: Homo sapiens, NB5;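 also: growth inhibition of NB5 cells, read out as cell viability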
Description: SANGER: Inhibition of human NB5 cell growth in a cell viability assay.

NB69 = type: functional, cell-based, Homo sapiens; conditions: Homo sapiens, NB69;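 also: growth inhibition of NB69 cells, determined by a cell viability assay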
Description: SANGER: Inhibition of human NB69 cell growth in a cell viability assay.

GR-ST = type: functional, cell-based, Homo sapiens; conditions: Homo sapiens, GR-ST
Description: SANGER: Inhibition of human GR-ST cell growth in a cell viability assay.

SCH = type: functional, cell-based, Homo sapiens; conditions: Homo sapiens, SCH;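 also: growth inhibition of human SCH cells, read out in a cell viability assay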
Description: SANGER: Inhibition of human SCH cell growth in a cell viability assay.

RPMI-8226 = type: functional, cell-based, Homo sapiens; conditions: Homo sapiens, RPMI-8226
Description: SANGER: Inhibition of human RPMI-8226 cell growth in a cell viability assay.

ALL-PO = type: functional, cell-based, Homo sapiens; conditions: Homo sapiens, ALL-PO;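 also: growth inhibition of ALL-PO cells, read out by a cell viability assay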
Description: SANGER: Inhibition of human ALL-PO cell growth in a cell viability assay.

HH = type: functional, cell-based, Homo sapiens; conditions: Homo sapiens, HH
Description: SANGER: Inhibition of human HH cell growth in a cell viability assay.

SK-UT-1 = type: functional, cell-based, Homo sapiens; conditions: Homo sapiens, SK-UT-1;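 also: growth inhibition of SK-UT-1 cells, measured by a cell viability assay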
Description: SANGER: Inhibition of human SK-UT-1 cell growth in a cell viability assay.

TE-6 = type: functional, cell-based, Homo sapiens; conditions: Homo sapiens, TE-6;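 also: growth inhibition of TE-6 cells, read out with a cell viability assay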
Description: SANGER: Inhibition of human TE-6 cell growth in a cell viability assay.

D-502MG = type: functional, cell-based, Homo sapiens; conditions: Homo sapiens, D-502MG
Description: SANGER: Inhibition of human D-502MG cell growth in a cell viability assay.

ES7 = type: functional, cell-based, Homo sapiens; conditions: Homo sapiens, ES7;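 also: growth inhibition of cultured human ES7 cells, read out as cell viability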
Description: SANGER: Inhibition of human ES7 cell growth in a cell viability assay.

MZ2-MEL = type: functional, cell-based, Homo sapiens; conditions: Homo sapiens, MZ2-MEL;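 also: growth inhibition of MZ2-MEL cells read out with a cell viability assay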
Description: SANGER: Inhibition of human MZ2-MEL cell growth in a cell viability assay.

NCI-H1304 = type: functional, cell-based, Homo sapiens; conditions: Homo sapiens, NCI-H1304;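 also: growth inhibition of the cancer cell line, measured in a cell viability assay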
Description: SANGER: Inhibition of human NCI-H1304 cell growth in a cell viability assay.

MOLT-16 = type: functional, cell-based, Homo sapiens; conditions: Homo sapiens, MOLT-16;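 also: growth inhibition of human MOLT-16 cells, read out with a cell viability assay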
Description: SANGER: Inhibition of human MOLT-16 cell growth in a cell viability assay.

KARPAS-45 = type: functional, cell-based, Homo sapiens; conditions: Homo sapiens, KARPAS-45;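 also: inhibition of cell line growth, read out through a viability assay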
Description: SANGER: Inhibition of human KARPAS-45 cell growth in a cell viability assay.

LS-1034 = type: functional, cell-based, Homo sapiens; conditions: Homo sapiens, LS-1034
Description: SANGER: Inhibition of human LS-1034 cell growth in a cell viability assay.

Ramos-2G6-4C10 = type: functional, cell-based, Homo sapiens; conditions: Homo sapiens, Ramos-2G6-4C10;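 also: growth inhibition of the cell line, measured by a cell viability read-out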
Description: SANGER: Inhibition of human Ramos-2G6-4C10 cell growth in a cell viability assay.

D-263MG = type: functional, cell-based, Homo sapiens; conditions: Homo sapiens, D-263MG
Description: SANGER: Inhibition of human D-263MG cell growth in a cell viability assay.

NCI-H720 = type: functional, cell-based, Homo sapiens; conditions: Homo sapiens, NCI-H720;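 also: growth inhibition of human NCI-H720 cells determined by a cell viability assay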
Description: SANGER: Inhibition of human NCI-H720 cell growth in a cell viability assay.

LB771-HNC = type: functional, cell-based; conditions: Homo sapiens;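 also: growth inhibition of LB771-HNC human cells, read out with a cell viability assay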
Description: SANGER: Inhibition of human LB771-HNC cell growth in a cell viability assay.

NMC-G1 = type: functional, cell-based, Homo sapiens; conditions: Homo sapiens, NMC-G1;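 also: growth inhibition of the NMC-G1 cell line, measured with a cell viability read-out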
Description: SANGER: Inhibition of human NMC-G1 cell growth in a cell viability assay.

SBC-1 = type: functional, cell-based, Homo sapiens; conditions: Homo sapiens, SBC-1;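 also: cell viability assay measuring growth inhibition of the SBC-1 cell line, IC50 being the concentration that halves growth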
Description: SANGER: Inhibition of human SBC-1 cell growth in a cell viability assay.

TE-9 = type: functional, cell-based, Homo sapiens; conditions: Homo sapiens, TE-9;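 also: cell growth inhibition, measured with a cell viability readout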
Description: SANGER: Inhibition of human TE-9 cell growth in a cell viability assay.

OMC-1 = type: functional, cell-based, Homo sapiens; conditions: Homo sapiens, OMC-1;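 also: growth inhibition of the OMC-1 cell line, measured by a cell viability assay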
Description: SANGER: Inhibition of human OMC-1 cell growth in a cell viability assay.

DJM-1 = type: functional, cell-based, Homo sapiens; conditions: Homo sapiens, DJM-1;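 also: growth inhibition of human DJM-1 cells, read out by a cell viability assay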
Description: SANGER: Inhibition of human DJM-1 cell growth in a cell viability assay.

SK-N-FI = type: functional, cell-based, Homo sapiens; conditions: Homo sapiens, SK-N-FI;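 also: cell viability assay measuring growth inhibition of human SK-N-FI cells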
Description: SANGER: Inhibition of human SK-N-FI cell growth in a cell viability assay.

LB996-RCC = type: functional, cell-based, Homo sapiens; conditions: Homo sapiens, LB996-RCC
Description: SANGER: Inhibition of human LB996-RCC cell growth in a cell viability assay.

SF-268 = type: functional, cell-based, Homo sapiens; conditions: Homo sapiens, SF-268;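 also: growth inhibition of SF-268 cells determined with a cell viability assay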
Description: SANGER: Inhibition of human SF268 cell growth in a cell viability assay.

CAS-1 = type: functional, cell-based, Homo sapiens; conditions: Homo sapiens, CAS-1;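 also: growth inhibition of CAS-1 cells, measured with a cell viability assay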
Description: SANGER: Inhibition of human CAS-1 cell growth in a cell viability assay.

ES6 = type: functional, cell-based; conditions: Homo sapiens;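 also: growth inhibition of human ES6 cells, read out with a cell viability assay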
Description: SANGER: Inhibition of human ES6 cell growth in a cell viability assay.

NCI-H82 = type: functional, cell-based, Homo sapiens; conditions: Homo sapiens, NCI-H82;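 also: growth inhibition of NCI-H82 cells, measured with a cell viability readout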
Description: SANGER: Inhibition of human NCI-H82 cell growth in a cell viability assay.

P30-OHK = type: functional, cell-based, Homo sapiens; conditions: Homo sapiens, P30-OHK;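 also: growth inhibition of the P30-OHK cell line, read out with a cell viability assay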
Description: SANGER: Inhibition of human P30-OHK cell growth in a cell viability assay.

MMAC-SF = type: functional, cell-based; conditions: Homo sapiens;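 also: growth inhibition of human MMAC-SF cells, read out with a cell viability assay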
Description: SANGER: Inhibition of human MMAC-SF cell growth in a cell viability assay.

HCC1187 = type: functional, cell-based, Homo sapiens; conditions: Homo sapiens, HCC1187;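 also: growth inhibition of HCC1187 cells, read out with a cell viability assay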
Description: SANGER: Inhibition of human HCC1187 cell growth in a cell viability assay.

HCC2157 = type: functional, cell-based, Homo sapiens; conditions: Homo sapiens, HCC2157;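 also: growth inhibition of the cancer cell line, read out as cell viability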
Description: SANGER: Inhibition of human HCC2157 cell growth in a cell viability assay.

A388 = type: functional, cell-based; conditions: Homo sapiens;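 also: growth inhibition of human A388 cells, read out with a cell viability assay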
Description: SANGER: Inhibition of human A388 cell growth in a cell viability assay.

COR-L88 = type: functional, cell-based, Homo sapiens; conditions: Homo sapiens, COR-L88;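 also: growth inhibition of COR-L88 cells, read out with a cell viability assay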
Description: SANGER: Inhibition of human COR-L88 cell growth in a cell viability assay.

NCI-H1648 = type: functional, cell-based, Homo sapiens; conditions: Homo sapiens, NCI-H1648;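 also: cell viability assay measuring inhibition of NCI-H1648 cell growth, from the Sanger screening data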
Description: SANGER: Inhibition of human NCI-H1648 cell growth in a cell viability assay.

Measured: IC50

Cc1ccc(-n2nc(C(C)(C)C)cc2NC(=O)Nc2ccc(OCCN3CCOCC3)c3ccccc23)cc1 [DORAMAPIMOD]
> 10 µM: all assays above
